Ki data for three compounds are collected here from BindingDB's records for doi:10.1007/bf00165806 (UniversitÄT Heidelberg, 1987).

A word on the Ki: it is the equilibrium dissociation constant of an inhibitor or competing ligand from its target.

Test [1] deals with Adenosine receptor A2a (Homo sapiens, UniProt P29274).
The target in test [2] is T1, Adenosine receptor A1 (Bos taurus, UniProt P28190).
T1 sequence (P28190 whole entry): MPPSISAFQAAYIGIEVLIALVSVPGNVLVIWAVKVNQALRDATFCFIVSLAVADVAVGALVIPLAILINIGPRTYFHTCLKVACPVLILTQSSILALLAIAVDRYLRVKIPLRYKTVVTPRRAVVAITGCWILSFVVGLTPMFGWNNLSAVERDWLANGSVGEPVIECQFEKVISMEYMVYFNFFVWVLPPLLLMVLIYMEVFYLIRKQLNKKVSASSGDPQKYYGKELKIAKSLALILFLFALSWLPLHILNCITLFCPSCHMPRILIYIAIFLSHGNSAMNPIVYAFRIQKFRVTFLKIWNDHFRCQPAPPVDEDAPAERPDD

Chain of Adenosine receptor A2a (P29274 whole entry): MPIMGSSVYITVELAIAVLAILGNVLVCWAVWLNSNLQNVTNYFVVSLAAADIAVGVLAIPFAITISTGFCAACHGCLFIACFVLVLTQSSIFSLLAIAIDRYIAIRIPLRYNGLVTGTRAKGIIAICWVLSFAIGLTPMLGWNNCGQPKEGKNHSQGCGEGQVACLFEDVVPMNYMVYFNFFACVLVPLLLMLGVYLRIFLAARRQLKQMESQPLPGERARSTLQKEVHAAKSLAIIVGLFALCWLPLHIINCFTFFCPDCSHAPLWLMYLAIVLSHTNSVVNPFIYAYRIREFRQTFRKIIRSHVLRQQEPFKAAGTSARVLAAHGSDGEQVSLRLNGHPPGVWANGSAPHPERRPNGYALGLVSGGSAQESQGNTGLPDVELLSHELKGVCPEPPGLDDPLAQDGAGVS

In the case of `CCn1c(=O)c2[nH]c(-c3ccccc3)nc2n(CC)c1=O` [1,3-Diethyl-8-phenyl-3,7-dihydro-purine-2,6-dione], the Ki in test [1] worked out at 210 nM.
The compound `CCCn1c(=O)c2[nH]c(C3CCCC3)nc2n(CCC)c1=O` [DPCPX] came in with a Ki in test [2] of 0.07 nM. This lies in the picomolar range.
The compound `CCCn1c(=O)c2[nH]c(-c3ccc(OCC(=O)NCCN)cc3)nc2n(CCC)c1=O` [N-(2-Amino-ethyl)-2-[4-(2,6-dioxo-1,3-dipropyl-2,3,6,9-tetrahydro-1H-purin-8-yl)-phenoxy]-acetamide] showed an inhibition constant Ki in test [2] of 0.08 nM.
